Data: publication PMC5940854, “Nitrothiophene carboxamides, a novel narrow spectrum antibacterial series: Mechanism of action and Efficacy” (Scientific Reports, 2018)
≈ marks a conversion by molar mass, not a printed value.

What was measured:
[1] = system: E. coli clinical isolates; assay: MIC on panel of E. coli clinical isolates; type: cell-based
NfsA = biological target: T1, NfsA (Escherichia coli, UniProt P17117); assay: Nitroreductase activity assay, NfsA; type: biochemical, E. coli; conditions: 20 μM compound, 40 μM NADPH, 10 nM NfsA; slope of initial velocity
T1 construct: His-tag; made in house; host or cells: E. coli BL21(DE3), pET28a (pET-nfsA)
T1 sequence (P17117 whole entry): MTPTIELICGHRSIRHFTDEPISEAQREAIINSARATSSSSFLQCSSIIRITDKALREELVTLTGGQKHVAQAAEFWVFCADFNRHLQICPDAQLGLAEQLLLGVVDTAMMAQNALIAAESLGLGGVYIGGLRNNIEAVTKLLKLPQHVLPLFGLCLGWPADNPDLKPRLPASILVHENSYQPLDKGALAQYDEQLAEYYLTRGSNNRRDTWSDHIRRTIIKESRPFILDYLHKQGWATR
Protocol: Enzyme reducing each of the substrates are measured by monitoring the concomitant oxidation of NADPH by NfsA and NADH by NfsB in a fluorescence based assay. The reduction in fluorescence due to the NADH oxidation (excitation 350 nm, emission 460 nm) and NADPH oxidation (excitation 340 nm, emission 485 nm) is recorded using a TECAN Infinite M200Pro spectrophotometer, in half area solid black microtiter plates. This change in fluorescence directly corelates to the reduction of the nitro-compounds in the reaction. The NfsA assays is performed by initiating the reactions with 40 μM NADPH and 10 nM NfsA in 50 mM Tris-HCl (pH 7.4), 5 mM EDTA against 20 μM substrate (5 μl of compounds/substrate dissolved in 100% DMSO) in a total reaction volume of 100 μl at 25 °C. Similarly, the NfsB assay is also performed by initiating the reactions with 40 μM NADH and 70 nM NfsB in 50 mM Tris-HCl (pH 7.4), 5 mM EDTA against 20 μM substrate in a total reaction volume of 100 μl. […] All reactions are performed in replicates of two or more and the fluorescence measurements are made at 10 second intervals for 5–10 minutes.
Low solubility of the compounds/substrates under the NfsA and NfsB assay conditions precluded determination of their Km. […] The relative fluorescence units (RFU) obtained due to NADPH (excitation 340 nm, emission 485 nm) or NADH (excitation 350 nm, emission 460 nm) oxidation of the first 90 sec reaction is used to compute the slopes using linear regression analysis on GraphPad Prism. Appropriate blank reactions are included to account for background fluorescence/quenching from each of the components such as DMSO, the compound itself and auto-oxidation of NADPH or NADH. Activity of NfsB with a known substrate such as nitrofurantoin is used as a benchmark to plot the relative activities with all the test compounds.

In the case of `O=C1CN(/N=C/c2ccc([N+](=O)[O-])o2)C(=O)N1` [nitrofurantoin, reference compound], the “MIC Range” value ([1]; 75 E.coli clinical isolates) is reported as 5 to 160 µg/mL, the MIC50 ([1]; Escherichia coli, 75 E.coli clinical isolates, 50% clinical isolates) is reported as 20 µg/mL (≈ 84 µM) and the MIC90 ([1]; Escherichia coli, 75 E.coli clinical isolates, 90% clinical isolates) is reported as 80 µg/mL (≈ 336 µM). The MIC ([1]; strain SEC001) was 80 µg/mL (≈ 336 µM), the MIC ([1]; strain SEC002) was 20 µg/mL (≈ 84 µM) and the MIC ([1]; strain SEC003) was 40 µg/mL (≈ 168 µM). The MIC ([1]; strain SEC004) was 80 µg/mL (≈ 336 µM), the MIC ([1]; strain SEC005) was 40 µg/mL (≈ 168 µM) and the MIC ([1]; strain SEC006) was 20 µg/mL (≈ 84 µM). It also gave an MIC ([1]; strain SEC007) of 40 µg/mL (≈ 168 µM), an MIC ([1]; strain SEC008) of 80 µg/mL (≈ 336 µM) and an MIC ([1]; strain SEC011) of 40 µg/mL (≈ 168 µM). The MIC ([1]; strain SEC012) was 20 µg/mL (≈ 84 µM), the MIC ([1]; strain SEC013) was 80 µg/mL (≈ 336 µM) and the MIC ([1]; strain SEC014) was 20 µg/mL (≈ 84 µM). The MIC ([1]; strain SEC015) was 20 µg/mL (≈ 84 µM), the MIC ([1]; strain SEC016) was 40 µg/mL (≈ 168 µM) and the MIC ([1]; strain SEC017) was 20 µg/mL (≈ 84 µM). The MIC ([1]; strain SEC018) was 20 µg/mL (≈ 84 µM), the MIC ([1]; strain SEC019) was 40 µg/mL (≈ 168 µM) and the MIC ([1]; strain SEC020) was 160 µg/mL (≈ 672 µM). The MIC ([1]; strain SEC021) was 20 µg/mL (≈ 84 µM), the MIC ([1]; strain SEC022) was 20 µg/mL (≈ 84 µM) and the MIC ([1]; strain SEC023) was 80 µg/mL (≈ 336 µM). For the same molecule, the MIC ([1]; strain SEC024) was 20 µg/mL (≈ 84 µM), the MIC ([1]; strain SEC025) was 40 µg/mL (≈ 168 µM) and the MIC ([1]; strain SEC026) was 20 µg/mL (≈ 84 µM). For the same molecule, the MIC ([1]; strain SEC028) was 5 µg/mL (≈ 21 µM), the MIC ([1]; strain SEC029) was 20 µg/mL (≈ 84 µM) and the MIC ([1]; strain SEC031) was 20 µg/mL (≈ 84 µM). The MIC ([1]; strain SEC032) was 20 µg/mL (≈ 84 µM), the MIC ([1]; strain SEC033) was 20 µg/mL (≈ 84 µM) and the MIC ([1]; strain SEC034) was 20 µg/mL (≈ 84 µM). It also gave an MIC ([1]; strain SEC035) of 40 µg/mL (≈ 168 µM), an MIC ([1]; strain SEC036) of 40 µg/mL (≈ 168 µM) and an MIC ([1]; strain SEC037) of 20 µg/mL (≈ 84 µM). It also gave an MIC ([1]; strain SEC038) of 20 µg/mL (≈ 84 µM), an MIC ([1]; strain SEC039) of 20 µg/mL (≈ 84 µM) and an MIC ([1]; strain SEC040) of 40 µg/mL (≈ 168 µM). It also gave an MIC ([1]; strain SEC041) of 20 µg/mL (≈ 84 µM), an MIC ([1]; strain SEC042) of 10 µg/mL (≈ 42 µM) and an MIC ([1]; strain SEC043) of 20 µg/mL (≈ 84 µM). The MIC ([1]; strain SEC044) was 80 µg/mL (≈ 336 µM), the MIC ([1]; strain SEC045) was 20 µg/mL (≈ 84 µM) and the MIC ([1]; strain SEC046) was 20 µg/mL (≈ 84 µM). For the same molecule, the MIC ([1]; strain SEC047) was 40 µg/mL (≈ 168 µM), the MIC ([1]; strain SEC048) was 40 µg/mL (≈ 168 µM) and the MIC ([1]; strain SEC049) was 40 µg/mL (≈ 168 µM). The MIC ([1]; strain SEC050) was 20 µg/mL (≈ 84 µM), the MIC ([1]; strain SEC051) was 40 µg/mL (≈ 168 µM) and the MIC ([1]; strain SEC052) was 160 µg/mL (≈ 672 µM). The MIC ([1]; strain SEC053) was 40 µg/mL (≈ 168 µM), the MIC ([1]; strain SEC054) was 20 µg/mL (≈ 84 µM) and the MIC ([1]; strain SEC055) was 20 µg/mL (≈ 84 µM). For the same molecule, the MIC ([1]; strain SEC057) was 40 µg/mL (≈ 168 µM), the MIC ([1]; strain SEC058) was 80 µg/mL (≈ 336 µM) and the MIC ([1]; strain SEC059) was 20 µg/mL (≈ 84 µM). The MIC ([1]; strain SEC060) was 20 µg/mL (≈ 84 µM), the MIC ([1]; strain SEC061) was 40 µg/mL (≈ 168 µM) and the MIC ([1]; strain SEC062) was 20 µg/mL (≈ 84 µM). It also gave an MIC ([1]; strain SEC063) of 40 µg/mL (≈ 168 µM), an MIC ([1]; strain SEC064) of 40 µg/mL (≈ 168 µM) and an MIC ([1]; strain SEC065) of 20 µg/mL (≈ 84 µM). The MIC ([1]; strain SEC067) was 20 µg/mL (≈ 84 µM), the MIC ([1]; strain SEC068) was 20 µg/mL (≈ 84 µM) and the MIC ([1]; strain SEC069) was 20 µg/mL (≈ 84 µM). For the same molecule, the MIC ([1]; strain SEC070) was 20 µg/mL (≈ 84 µM), the MIC ([1]; strain SEC071) was 20 µg/mL (≈ 84 µM) and the MIC ([1]; strain SEC072) was 20 µg/mL (≈ 84 µM). For the same molecule, the MIC ([1]; strain SEC073) was 40 µg/mL (≈ 168 µM), the MIC ([1]; strain SEC074) was 40 µg/mL (≈ 168 µM) and the MIC ([1]; strain SEC075) was 10 µg/mL (≈ 42 µM). The MIC ([1]; strain SEC076) was 20 µg/mL (≈ 84 µM), the MIC ([1]; strain SEC077) was 80 µg/mL (≈ 336 µM) and the MIC ([1]; strain SEC078) was 80 µg/mL (≈ 336 µM). For the same molecule, the MIC ([1]; strain SEC079) was 20 µg/mL (≈ 84 µM), the MIC ([1]; strain SEC080) was 40 µg/mL (≈ 168 µM) and the “NfsA activity (rate of compound conversion)” value (NfsA) was 3.58 µM/min.

With `Cc1sc(NC(=O)c2ccc([N+](=O)[O-])s2)nc1-c1ccccc1` [compound 7, N-(5-Methyl-4-phenylthiazol-2-yl)-5-nitrothiophene-2-carboxamide] the “NfsA activity (rate of compound conversion)” value (NfsA) was 0.64 µM/min.
